Where two headings read alike, the source gives them in different places.
Key:
Nrf2 = test: qPCR mRNA expression in HepG2-C8 cells; assay type: cell-based, human; details: 25 μM, 6 h, vs 0.1% DMSO
Method: (§1) The cells were treated similarly to the NITS and ARE-luciferase assays described above using 10% FBS medium. The incubation of the compounds with the cells was terminated 6 h later. The mRNA expression was evaluated utilizing a quantitative real-time polymerase chain reaction (qPCR). An RNeasy kit from Qiagen was used for RNA extraction (Valencia, Calif.). The total RNA was reverse-transcribed to cDNA by TaqMan Reverse Transcription Reagents (Applied Biosystems Inc, Foster City, Calif.). SYBR Green (Applied Biosystems Inc, Foster City, Calif.) fluorescence was used to measure the product of qPCR. Glyceraldehyde 3-phosphate dehydrogenase (GAPDH) was used as the housekeeping gene, and the Applied Biosystems 7900HT Fast Real-Time PCR System (Applied Biosystems Inc, Foster City, Calif.) was used as described previously (Saw et al., Biochem Pharmacol 2010; 79: 421-430) to detect quantitatively the induction of mRNA of Nrf2, phase II DME GSTm2, NAD (P)H dehydrogenase, quinone 1 (NQO1), UGT family, polypeptide A1 (UGT1A1) and antioxidant enzymes HO-1, superoxide dismutase 1 (SOD1). The primer pairs were designed using the Primer Quest Oligo Design and Analysis Tool by Integrated DNA Technologies Inc. (Coralville, Iowa, USA) and the sequences are listed in Table 4. At least four wells of each treatment were performed and duplicate samples were carried out for each treatment.

HO-1 = test: qPCR mRNA expression in HepG2-C8 cells; assay type: cell-based, human; details: 25 μM, 6 h, vs 0.1% DMSO
Method: as §1

[1] = oral; cited from earlier work
HepG2-C8 cells = test: MTS cell viability assay; assay type: cell-based, human
Method: The stably transfected single clone HepG2-ARE-C8 (HepG2-C8) cell line has been established previously in our laboratory using the […]-luciferase reporter gene. The cells were maintained in Dulbecco's modified Eagle medium supplemented with 10% fetal bovine serum (FBS), 1.17 g/l sodium bicarbonate, and 100 unit/ml penicillin, 100 μg/ml streptomycin at 37° C. in a humidified incubator with 5% CO2. […] MTS] (Promega, Madison, Wis.). […] The cells were then treated with MTS for 1 h at 37° C. Absorbance of the formazan product was read at 490 nm with a μQuant Biomolecular Spectrophotometer from Bio-Tek Instruments Inc. (Winooski, Vt.). Independent control studies were conducted using 1% and 10% FBS medium.

[2] = tested on: antioxidant response element (ARE); test: ARE-luciferase reporter assay with combination index calculation; assay type: cell-based, human
Method: The stably transfected single clone HepG2-ARE-C8 (HepG2-C8) cell line has been established previously in our laboratory using the […]-luciferase reporter gene. The cells were maintained in Dulbecco's modified Eagle medium supplemented with 10% fetal bovine serum (FBS), 1.17 g/l sodium bicarbonate, and 100 unit/ml penicillin, 100 μg/ml streptomycin at 37° C. in a humidified incubator with 5% CO2. The HepG2-C8 cells were cultured in 12-well plates and each well contained 1 million cells in 1 ml of 10% FRS medium. The cells were treated with compounds for 24 h. The luciferase activity was determined using a luciferase kit from Promega (Madison, USA) according to the manufacturer's instructions. Briefly, after treatments for 24 h, the cells were washed twice with ice-cold phosphate buffered-saline (PBS, pH 7.4) and harvested in 1× reporter lysis buffer and […]. After centrifugation at 4° C., 12000 rpm for 5 min, a 10 μl aliquot of the supernatant was assayed for luciferase activity with a Sirius luminometer (Berthold Detection System GmbH, Pforzheim, Germany). The luciferase activity was normalized against protein concentration, determined by a BCA protein assay (Pierce, Rockford, USA), and expressed as the fold induction over the luciferase activity of control vehicle-treated cells. At least two to three independent studies were conducted in triplicates. To determine the synergistic effect between the combination of two different compounds, the combination index (CI) was calculated with the following formula: […] This approach is based on the Loewe additivity model and although the exact mechanism of interaction may be unknown, this model is one of the most commonly used reference models for evaluating potential drug-drug interactions Lee et al., J Biopharm Stat 2007; 17: 461-480).

NQO1 = test: qPCR mRNA expression in HepG2-C8 cells; assay type: cell-based, human; details: 6 h
Method: as §1

[3] = tested on: first 5 CpGs in the promoter region of Nrf2 gene; details: TRAMP C1 cells, other DNA de-methylating agents; cited from earlier work
[4] = Homo sapiens, HepG2C8, 1% FBS medium, read-out: cell viability inhibitory concentrations (IC50)

OCc1c[nH]c2ccccc12 [I3C, indole-3-carbinol]
Nrf2 mRNA induction over control (Nrf2): did not show significant induction | HO-1 mRNA induction over control (HO-1): did not show significant induction | tolerability [1]: well tolerated | IC50 (HepG2-C8 cells; 1% FBS medium, read-out: cell viability inhibitory concentrations (IC50)): 135 µM | IC50 (HepG2-C8 cells; 10% FBS medium (data not shown), read-out: cell viability IC50): 300 µM | induction of ARE-luciferase ([2]; doses lower than 25 μM, 10% FBS medium (data not shown)): no significant induction

S=C=NCCc1ccccc1 [PEITC, phenethyl isothiocyanate]
NQO1 gene expression (NQO1; 1 μM): greatly induced | IC50 (HepG2-C8 cells; [4]): ~20 µM

C[S+]([O-])CCCCN=C=S (stereo not drawn) [SFN, sulforaphane]
NQO1 gene expression (NQO1; any concentration): not significantly induced | IC50 (HepG2-C8 cells; [4]): ~20 µM | time of peak induction of ARE-luciferase activity ([2]; time course study, after treatment): 18 h

COc1cc(/C=C/C(=O)CC(=O)/C=C/c2ccc(O)c(OC)c2)ccc1O [curcumin]
CpG methylation of the first 5 CpGs of the promoter of Nrf2 gene [3]: decreased CpG methylation

Source: patent US8916604B2, “Compositions and methods for epigenetic modification of nucleic acid sequences” (Rutgers, The State University of New Jersey, priority 2011, dated 2014)
